Measurements: PubChem BioAssay (NCI)
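Here, GI50 denotes the concentration required for 50% inhibition of growth. TGI is the concentration that stops growth completely.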

What was measured:
Assay in all cases: growth of human tumour cells (NCI), 384-well format; in the data active = GI50 below about 0.43 µM; inactive = the rest
UACC-257 melanoma = test system: UACC-257 melanoma
OVCAR-8 ovarian = test system: OVCAR-8 ovarian
OVCAR-5 ovarian = test system: OVCAR-5 ovarian
T-47D breast = test system: T-47D breast
HCC-2998 colon = test system: HCC-2998 colon
K-562 leukemia = test system: K-562 leukemia
DU-145 prostate = test system: DU-145 prostate
U251 glioblastoma = test system: U251 glioblastoma
SF-295 CNS = test system: SF-295 CNS
MDA-MB-231 breast = test system: MDA-MB-231 breast
COLO 205 colon = test system: COLO 205 colon
NCI-H23 lung = test system: NCI-H23 lung
RPMI-8226 leukemia = test system: RPMI-8226 leukemia
SF-539 CNS = test system: SF-539 CNS
SNB-19 CNS = test system: SNB-19 CNS
A498 renal = test system: A498 renal
786-0 renal = test system: 786-0 renal
NCI-H322M lung = test system: NCI-H322M lung
HS 578T breast = test system: HS 578T breast
UO-31 renal = test system: UO-31 renal
HCT-15 colon = test system: HCT-15 colon
ACHN renal = test system: ACHN renal
MOLT-4 leukemia = test system: MOLT-4 leukemia
NCI/ADR-RES ovarian = test system: NCI/ADR-RES ovarian
SK-MEL-5 melanoma = test system: SK-MEL-5 melanoma
MDA-MB-468 breast = test system: MDA-MB-468 breast
RXF 393 renal = test system: RXF 393 renal
NCI-H522 lung = test system: NCI-H522 lung
OVCAR-3 ovarian = test system: OVCAR-3 ovarian
HOP-62 NSCLC = test system: HOP-62 NSCLC
SW-620 colon = test system: SW-620 colon
TK-10 renal = test system: TK-10 renal
HOP-92 NSCLC = test system: HOP-92 NSCLC
CAKI-1 renal = test system: CAKI-1 renal
LOX IMVI melanoma = test system: LOX IMVI melanoma
SF-268 CNS = test system: SF-268 CNS
M14 melanoma = test system: M14 melanoma
HL-60(TB) leukemia = test system: HL-60(TB) leukemia
KM12 colon = test system: KM12 colon
NCI-H226 lung = test system: NCI-H226 lung
IGROV1 ovarian = test system: IGROV1 ovarian
SNB-75 CNS = test system: SNB-75 CNS
HT29 colon = test system: HT29 colon
BT-549 breast = test system: BT-549 breast
A549 NSCLC = test system: A549 NSCLC
NCI-H460 NSCLC = test system: NCI-H460 NSCLC
CCRF-CEM leukemia = test system: CCRF-CEM leukemia
PC-3 prostate = test system: PC-3 prostate
SK-OV-3 ovarian = test system: SK-OV-3 ovarian
OVCAR-4 ovarian = test system: OVCAR-4 ovarian
MALME-3M melanoma = test system: MALME-3M melanoma
HCT-116 colon = test system: HCT-116 colon
SK-MEL-28 melanoma = test system: SK-MEL-28 melanoma
SN12C renal = test system: SN12C renal
EKVX NSCLC = test system: EKVX NSCLC
MDA-MB-435 melanoma = test system: MDA-MB-435 melanoma
MCF7 breast = test system: MCF7 breast
SR leukemia = test system: SR leukemia

O=C(Nc1cc(F)c(F)cc1C(=O)O)c1ccc(-n2ccnc2)nn1
inactive: GI50 (UACC-257 melanoma) > 100 µM | GI50 (OVCAR-8 ovarian) > 100 µM | GI50 (OVCAR-5 ovarian) > 100 µM | GI50 (T-47D breast) > 100 µM | GI50 (HCC-2998 colon) > 100 µM | GI50 (K-562 leukemia) 50.6 µM | GI50 (DU-145 prostate) > 100 µM | GI50 (U251 glioblastoma) > 100 µM | GI50 (SF-295 CNS) > 100 µM | GI50 (MDA-MB-231 breast) > 100 µM | GI50 (COLO 205 colon) > 100 µM | GI50 (NCI-H23 lung) > 100 µM | GI50 (RPMI-8226 leukemia) > 100 µM | GI50 (SF-539 CNS) > 100 µM | GI50 (SNB-19 CNS) > 100 µM | GI50 (A498 renal) > 100 µM | GI50 ([…]-0 renal) > 100 µM | GI50 (NCI-H322M lung) > 100 µM | GI50 (HS 578T breast) > 100 µM | GI50 (UO-31 renal) > 100 µM | GI50 (HCT-15 colon) > 100 µM | GI50 (ACHN renal) > 100 µM | GI50 (MOLT-4 leukemia) > 100 µM | GI50 (NCI/ADR-RES ovarian) > 100 µM | GI50 (SK-MEL-5 melanoma) 57.9 µM | GI50 (MDA-MB-468 breast) 29.2 µM | GI50 (RXF 393 renal) > 100 µM | GI50 (NCI-H522 lung) 65.1 µM | GI50 (OVCAR-3 ovarian) > 100 µM | GI50 (HOP-62 NSCLC) > 100 µM | GI50 (SW-620 colon) > 100 µM | GI50 (TK-10 renal) > 100 µM | GI50 (HOP-92 NSCLC) > 100 µM | GI50 (CAKI-1 renal) > 100 µM | GI50 (LOX IMVI melanoma) > 100 µM | GI50 (SF-268 CNS) > 100 µM | GI50 (M14 melanoma) > 100 µM | GI50 (HL-60(TB) leukemia) > 100 µM | GI50 (KM12 colon) > 100 µM | GI50 (NCI-H226 lung) > 100 µM | GI50 (IGROV1 ovarian) > 100 µM | GI50 (SNB-75 CNS) > 100 µM | GI50 (HT29 colon) > 100 µM | GI50 (BT-549 breast) > 100 µM | GI50 (A549 NSCLC) > 100 µM | GI50 (NCI-H460 NSCLC) > 100 µM | GI50 (CCRF-CEM leukemia) > 100 µM | GI50 (PC-3 prostate) > 100 µM | GI50 (SK-OV-3 ovarian) > 100 µM | GI50 (OVCAR-4 ovarian) > 100 µM | GI50 (MALME-3M melanoma) > 100 µM | GI50 (HCT-116 colon) > 100 µM | GI50 (SK-MEL-28 melanoma) > 100 µM | GI50 (SN12C renal) > 100 µM | GI50 (EKVX NSCLC) > 100 µM | GI50 (MDA-MB-435 melanoma) > 100 µM | GI50 (MCF7 breast) > 100 µM | GI50 (SR leukemia) 23.3 µM
49.7 µM: TGI (SR leukemia)
> 100 µM: TGI (UACC-257 melanoma) | TGI (OVCAR-8 ovarian) | TGI (OVCAR-5 ovarian) | TGI (T-47D breast) | TGI (HCC-2998 colon) | TGI (K-562 leukemia) | TGI (DU-145 prostate) | TGI (U251 glioblastoma) | TGI (SF-295 CNS) | TGI (MDA-MB-231 breast) | TGI (COLO 205 colon) | TGI (NCI-H23 lung) | TGI (RPMI-8226 leukemia) | TGI (SF-539 CNS) | TGI (SNB-19 CNS) | TGI (A498 renal) | TGI (786-0 renal) | TGI (NCI-H322M lung) | TGI (HS 578T breast) | TGI (UO-31 renal) | TGI (HCT-15 colon) | TGI (ACHN renal) | TGI (MOLT-4 leukemia) | TGI (NCI/ADR-RES ovarian) | TGI (SK-MEL-5 melanoma) | TGI (MDA-MB-468 breast) | TGI (RXF 393 renal) | TGI (NCI-H522 lung) | TGI (OVCAR-3 ovarian) | TGI (HOP-62 NSCLC) | TGI (SW-620 colon) | TGI (TK-10 renal) | TGI (HOP-92 NSCLC) | TGI (CAKI-1 renal) | TGI (LOX IMVI melanoma) | TGI (SF-268 CNS) | TGI (M14 melanoma) | TGI (HL-60(TB) leukemia) | TGI (KM12 colon) | TGI (NCI-H226 lung) | TGI (IGROV1 ovarian) | TGI (SNB-75 CNS) | TGI (HT29 colon) | TGI (BT-549 breast) | TGI (A549 NSCLC) | TGI (NCI-H460 NSCLC) | TGI (CCRF-CEM leukemia) | TGI (PC-3 prostate) | TGI (SK-OV-3 ovarian) | TGI (OVCAR-4 ovarian) | TGI (MALME-3M melanoma) | TGI (HCT-116 colon) | TGI (SK-MEL-28 melanoma) | TGI (SN12C renal) | TGI (EKVX NSCLC) | TGI (MDA-MB-435 melanoma) | TGI (MCF7 breast)
